Measurements taken from patent US20050070508A1, “Napthalene carboxamides and their derivatives useful as new anti-angiogenic agents” (AGOURON PHARMACEUTICALS, INC., priority 2003, published 2005).

Experiments:
[1] = target: T1, human vascular endothelial growth factor receptor 2 (VEGF-R2) (Homo sapiens, UniProt P35968, DEL940-989/E990V); assay: VEGF-R2 coupled spectrophotometric assay (FLVK); format: biochemical; settings: unphosphorylated VEGF-R2D50 (FLVK)
T1 construct: VEGF-R2D50 contains residues 806-939 and 990-1171; made in house; host or cells: baculovirus/insect cell system
T1 sequence (P35968 with tags, fused parts or gaps DEL940-989/E990V limits assumed): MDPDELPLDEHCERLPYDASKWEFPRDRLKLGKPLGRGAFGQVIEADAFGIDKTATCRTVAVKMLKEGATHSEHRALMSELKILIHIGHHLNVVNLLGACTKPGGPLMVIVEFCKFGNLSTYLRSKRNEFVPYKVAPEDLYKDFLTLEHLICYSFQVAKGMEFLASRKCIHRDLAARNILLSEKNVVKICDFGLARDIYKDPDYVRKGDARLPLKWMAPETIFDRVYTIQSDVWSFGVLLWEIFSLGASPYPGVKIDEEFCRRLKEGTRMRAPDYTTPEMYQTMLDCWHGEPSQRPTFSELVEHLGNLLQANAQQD
Description: This construct determines the ability of a test compound to inhibit tyrosine kinase activity. A construct (VEGF-R2D50) of the cytosolic domain of human vascular endothelial growth factor receptor 2 (VEGF-R2) lacking the 50 central residues of the 68 residues of the kinase insert domain was expressed in a baculovirus/insect cell system. Of the 1356 residues of full-length VEGF-R2, VEGF-R2D50 contains residues 806-939 and 990-1171, and also one point mutation (E990V) within the kinase insert domain relative to wild-type VEGF-R2. Autophosphorylation of the purified construct was performed by incubation of the enzyme at a concentration of […] in the presence of 3 mM ATP and 40 mM MgCl2 in 100 mM HEPES, pH 7.5, containing 5% glycerol and 5 mM DTT, at 4° C. for 2 h. […] See Parast et al., Biochemistry, 37, 16788-16801 (1998).
The production of ADP from ATP that accompanies phosphoryl transfer was coupled to oxidation of NADH using phosphoenolpyruvate (PEP) and a system having pyruvate kinase (PK) and lactic dehydrogenase (LDH). The oxidation of NADH was monitored by following the decrease of absorbance at 340 nm (e340=6.22 cm^−1 mM^−1) using a Beckman DU 650 spectrophotometer. Assay conditions for phosphorylated VEGF-R2D50 (indicated as FLVK-P in the tables below) were the following: 1 mM PEP; […]; 50 units of LDH/mL; 20 units of PK/mL; 5 mM DTT; 5.1 mM poly(E4Y1); 1 mM ATP; and 25 mM MgCl2 in 200 mM HEPES, pH 7.5. Assay conditions for unphosphorylated VEGF-R2D50 (indicated as FLVK in the tables) were the following: 1 mM PEP; […]; 50 units of LDH/mL; 20 units of PK/mL; 5 mM DTT; 20 mM poly(E4Y1); 3 mM ATP; and 60 mM MgCl2 and 2 mM MnCl2 in 200 mM HEPES, pH 7.5. Assays were initiated with 5 to 40 nM of enzyme. Ki values were determined by measuring enzyme activity in the presence of varying concentrations of test compounds. The percent inhibition at 50 nm (% inhibition @ 50 nm) was determined by linear least-squares regression analysis of absorbance as a function of time. The binding inhibitions were fitted to equation as described by Morrison. The data were analyzed using Enzyme Kinetic and Kaleidagraph software.

[2] = test system: human umbilical vein endothelial cells (HUVEC); assay: HUVEC+VEGF Proliferation Assay; format: cell-based; settings: VEGF-stimulated proliferation, final VEGF 6 ng/mL, 72 hours, MTT dye reduction
Experimental: This assay determines the ability of a test compound to inhibit the growth factor-stimulated proliferation of human umbilical vein endothelial cells (“HUVEC”). HUVEC cells (passage 3-4, Clonetics, Corp.) were thawed into EGM2 culture medium (Clonetics Corp) in T75 flasks. Fresh EGM2 medium was added to the flasks 24 hours later. Four or five days later, cells were exposed to another culture medium (F12K medium supplemented with 10% fetal bovine serum (FBS), […] endothelial cell growth supplement (ECGS), and 0.1 mg/mL heparin). Exponentially-growing HUVEC cells were used in experiments thereafter. Ten to twelve thousand HUVEC cells were plated in 96-well dishes in […] of rich, culture medium (described above). The cells were allowed to attach for 24 hours in this medium. The medium was then removed by aspiration and […] of starvation media (F12K+1% FBS) was added to each well. After 24 hours, […] of test agent dissolved in 1% DMSO in starvation medium or this vehicle alone was added into each treatment well; the final DMSO concentration was 0.1%. One hour later, […] of VEGF (30 ng/mL) in starvation media was added to all wells except those containing untreated controls; the final VEGF concentration was 6 ng/mL. Cellular proliferation was quantified 72 hours later by MTT dye reduction, at which time cells were exposed for 4 hours MTT (Promega Corp.). Dye reduction was stopped by addition of a stop solution (Promega Corp.) and absorbance at 595 nm was determined on a 96-well spectrophotometer plate reader.

| Ki [1] [nM] | SMILES | IC50 [2] [nM] |
| --- | --- | --- |
| < 1 | CNC(=O)c1cccc2c(F)c(Oc3ccnc4cc(C(=O)N5CC[C@H](OC)C5)sc34)ccc12 [Example 1, 5-Fluoro-6-[(2-{[(3S)-3-methoxypyrrolidin-1-yl]carbonyl}thieno[3,2-b]pyridin-7-yl)oxy]-N-methyl-1-naphthamide] | < 1 |
|  | CNC(=O)c1cccc2c(F)c(Oc3ccnc4cc(C(=O)N(C)C)sc34)ccc12 [Example 2, 7-({1-Fluoro-5-[(methylamino)carbonyl]-2-naphthyl}oxy)-N,N-dimethylthieno[3,2-b]pyridine-2-carboxamide] | < 1 |
| < 1 | CNC(=O)c1cccc2cc(Oc3ccnc4cc(C(=O)N5CC[C@H](OC)C5)sc34)ccc12 [Example 3, 6-[(2-{[(3S)-3-methoxypyrrolidin-1-yl]carbonyl}thieno[3,2-b]pyridin-7-yl)oxy]-N-methyl-1-naphthamide] | < 1 |
| < 1 | CNC(=O)c1cccc2cc(Oc3ccnc4cc(C(=O)N(C)C)sc34)ccc12 [Example 4, N,N-Dimethyl-7-({5-[(methylamino)carbonyl]-2-naphthyl}oxy) thieno[3,2-b]pyridine-2-carboxamide] | 1 to 10 |
| 1 to 10 | CNC(=O)c1cccc2cc(Oc3ccnc4cc(C(=O)N5CC[C@@H](N(C)C)C5)sc34)ccc12 [Example 5, 6-[(2-{[(3R)-3-(dimethylamino)pyrrolidin-1-yl]carbonyl}thieno[3,2-b]pyridin-7-yl)oxy]-N-methyl-1-naphthamide] | 1 to 10 |
| < 1 | CNC(=O)c1cccc2cc(Oc3ccnc4cc(C(=O)N(C)CCN(C)C)sc34)ccc12 [Example 6, N-[2-(Dimethylamino)ethyl]-N-methyl-7-({5-[(methylamino)carbonyl]-2-naphthyl}oxy)thieno[3,2-b]pyridine-2-carboxamide] | > 10 |
| 1 to 10 | CNC(=O)c1cccc2cc(Oc3ccnc4cc(C(=O)N(C)CCCN(C)C)sc34)ccc12 [Example 7, N-[3-(Dimethylamino)propyl]-N-methyl-7-({5-[(methylamino)carbonyl]-2-naphthyl}oxy)thieno[3,2-b]pyridine-2-carboxamide] | > 10 |
| 1 to 10 | CNC(=O)c1cccc2cc(Oc3ccnc4cc(C(=O)N(C)CCO)sc34)ccc12 [Example 8, N-(2-Hydroxyethyl)-N-methyl-7-({5-[(methylamino)carbonyl]-2-naphthyl}oxy)thieno[3,2-b]pyridine-2-carboxamide] | > 10 |
| < 1 | CN(C)[C@@H]1CCN(C(=O)c2cc3nccc(Oc4ccc5c(C(=O)NC6CC6)cccc5c4)c3s2)C1 [Example 9, N-Cyclopropyl-6-[(2-{[(3R)-3-(dimethylamino)pyrrolidin-1-yl]carbonyl}thieno[3,2-b]pyridin-7-yl)oxy]-1-naphthamide] |  |
| < 1 | CNCC1CCN(C(=O)c2cc3nccc(Oc4ccc5c(C(=O)NC)cccc5c4)c3s2)C1 (stereo not shown) [Example 10, N-Methyl-6-{[2-({3-[(methylamino)methyl]pyrrolidin-1-yl}carbonyl)thieno[3,2-b]pyridin-7-yl]oxy}-1-naphthamide] |  |
| 1 to 10 | COCCNC(=O)c1cccc2cc(Oc3ccnc4cc(C(=O)N5CC[C@@H](N(C)C)C5)sc34)ccc12 [Example 11, 6-[(2-{[(3R)-3-(Dimethylamino)pyrrolidin-1-yl]carbonyl}thieno[3,2-b]pyridin-7-yl)oxy]-N-(2-methoxyethyl)-1-naphthamide] |  |
| < 1 | O=C(NCCN1CCOCC1)c1cccc2cc(Oc3ccnc4cc(C(=O)N5CC[C@@H](O)C5)sc34)ccc12 [Example 13, 6-[(2{[(3R)-3-Hydroxypyrrolidin-1-yl]carbonyl}thieno[3,2-b]pyridin-7-yl)oxy]-N-(2-morpholin-4-ylethyl)-1-naphthamide] | 1 to 10 |
| < 1 | Cn1ccnc1-c1cc2nccc(Oc3ccc4c(C(=O)NCCN5CCOCC5)cccc4c3)c2s1 [Example 14, 6-{[2-(1-Methyl-1H-imidazol-2-yl)thieno[3,2-b]pyridin-7-yl]oxy}-N-(2-morpholin-4-ylethyl)-1-naphthamide] | 1 to 10 |
| 1 to 10 | O=C(NCCN1CCOCC1)c1cccc2cc(Oc3ccnc4ccsc34)ccc12 [Example 15, N-(2-Morpholin-4-ylethyl)-6-(thieno[3,2-b]pyridin-7-yloxy)-1-naphthamide] | > 10 |
| < 1 | Cn1ccnc1-c1cc2nccc(Oc3ccc4c(C(=O)NCCCN5CCOCC5)cccc4c3)c2s1 [Example 30, 6-[2-(1-Methyl-1H-imidazol-2-yl)-thieno[3,2-b]pyridin-7-yloxy]-naphthalene-1-carboxylic acid (3-morpholin-4-yl-propyl)-amide] | < 1 |
| < 1 | O=C(NCCN1CCOCC1)c1cccc2cc(Oc3ccnc4cc(C(=O)N5CCC5)sc34)ccc12 [Example 31, 6-[2-(Azetidine-1-carbonyl)-thieno[3,2-b]pyridin-7-yloxy]-naphthalene-1-carboxylic acid (2-morpholin-4-yl-ethyl)-amide] | 1 to 10 |
| < 1 | O=C(NCCCN1CCOCC1)c1cccc2cc(Oc3ccnc4cc(C(=O)N5CCC5)sc34)ccc12 [Example 32, 6-[2-(Azetidine-1-carbonyl)-thieno[3,2-b]pyridin-7-yloxy]-naphthalene-1-carboxylic acid (3-morpholin-4-yl-propyl)-amide] | 1 to 10 |
| > 10 | O=C(NCCCN1CCCCC1)c1cccc2cc(Oc3ccnc4ccsc34)ccc12 [Example 36, 6-(Thieno[3,2-b]pyridin-7-yloxy)-naphthalene-1-carboxylic acid (3-piperidin-1-yl-propyl)-amide] |  |
| > 10 | O=C(NCCCN1CCCC1)c1cccc2cc(Oc3ccnc4ccsc34)ccc12 [Example 37, 6-(Thieno[3,2-b]pyridin-7-yloxy)-naphthalene-1-carboxylic acid (3-pyrrolidin-1-yl-propyl)-amide] |  |
| > 10 | CN(C)CCNC(=O)c1cccc2cc(Oc3ccnc4ccsc34)ccc12 [Example 41, 6-(Thieno[3,2-b]pyridin-7-yloxy)-naphthalene-1-carboxylic acid (2-dimethylamino-ethyl)-amide] |  |
| > 10 | CNC(=O)c1cccc2cc(Oc3ccnc4cc(O)ccc34)ccc12 [Example 44, 6-(7-Hydroxy-quinolin-4-yloxy)-naphthalene-1-carboxylic Acid Methylamide] |  |
|  | CCCCNC(=O)c1cccc2cc(Oc3ccnc4cc(OC)ccc34)ccc12 [Example 47, 6-(7-Methoxy-quinolin-4-yloxy)-naphthalene-1-carboxylic Acid Butylamide] | > 10 |
|  | CCCCNC(=O)c1cccc2cc(Oc3ccnc4cc(O)ccc34)ccc12 [Example 48, 6-(7-Hydroxy-quinolin-4-yloxy)-naphthalene-1-carboxylic Acid Butylamide] | 1 to 10 |
| > 10 | O=C(NCCN1CCOCC1)c1cccc2cc(Oc3ncnc4ccsc34)ccc12 [Example 52, N-(2-Morpholin-4-ylethyl)-6-(thieno[3,2-d]pyrimidin-4-yloxy)-1-naphthamide] |  |
